Ten compounds from DBAASP can be followed below.

The structures appear in SMILES notation. In brackets after ≈: the same amount, converted by molar mass. Several values for one entry are separate records, joined by “and”; a condition that tells them apart may be missing. Identical values can stand only once. Some results are limits rather than exact numbers.

Test systems include Escherichia coli; Candida albicans; Escherichia coli MG1655; Escherichia coli BW25113.
What all share (assay): ≥ marks a high value that may be exact or a test limit, other limits are often not marked, values filed in µg/mL are converted to µM
Experiment [1] deals with Pseudomonas aeruginosa ATCC 27853.
Experiment [2] concerns Escherichia coli DH5alpha.
Experiment [3] has as its system Escherichia coli ATCC 25922.
The subject of experiment [4] is Pseudomonas aeruginosa H188.
For experiment [5], the system named is Staphylococcus aureus ATCC 25923.
The test system of experiment [6] is Pseudomonas aeruginosa PAO1.
The test system of experiment [7] is Klebsiella pneumoniae ATCC 700603.
The test system of experiment [8] is Acinetobacter baumannii ATCC 19606.
The subject of experiment [9] is Escherichia coli BW25113 ΔsbmA.
In experiment [10] the test system is Salmonella enterica subsp. enterica serovar Typhimurium ATCC 14028.
Experiment [11] has as its system Listeria monocytogenes LO28.
The test system of experiment [12] is Cronobacter sakazakii DPC 6440.

`CC[C@H](C)[C@H](NC(=O)[C@H](C)NC(=O)[C@H](CCCCN)NC(=O)[C@H](CC(C)C)NC(=O)[C@H](C)NC(=O)[C@@H](NC(=O)[C@H](Cc1cnc[nH]1)NC(=O)[C@H](CC(C)C)NC(=O)CNC(=O)[C@@H](NC(=O)[C@H](CCCCN)NC(=O)[C@H](CCCCN)NC(=O)[C@H](C)NC(=O)[C@H](CO)NC(=O)[C@H](CCCCN)NC(=O)[C@H](Cc1ccccc1)NC(=O)[C@@H](NC(=O)[C@H](CCCCN)NC(=O)[C@H](CC(C)C)NC(=O)[C@H](Cc1ccccc1)NC(=O)[C@H](CO)NC(=O)[C@H](CCCCN)NC(=O)[C@H](Cc1c[nH]c2ccccc12)NC(=O)[C@H](CCCCN)NC(C)=O)[C@@H](C)O)[C@@H](C)O)[C@@H](C)O)C(=O)N[C@@H](CO)C(=O)N[C@@H](CO)C(N)=O` [KWKSFLKTFKSAKKTGLHTALKAISS]: the MIC (usually the smallest concentration in the dilution series that meets the test's criterion for growth inhibition) in experiment [1] is 11 µM (≈ 32.5 µg/mL); in experiment [2], 2.75 µM (≈ 8.11 µg/mL); in experiment [3] it was 2.75 µM (≈ 8.11 µg/mL); in [4], 2.75 µM (≈ 8.11 µg/mL); against Escherichia coli, 5.5 µM (≈ 16.2 µg/mL).
Regarding `CC[C@H](C)[C@H](NC(=O)[C@H](C)NC(=O)[C@H](CCCCN)NC(=O)[C@H](CC(C)C)NC(=O)[C@H](C)NC(=O)[C@@H](NC(=O)[C@H](Cc1cnc[nH]1)NC(=O)[C@H](CC(C)C)NC(=O)[C@H](CC(C)C)NC(=O)[C@@H](NC(=O)[C@H](CCCCN)NC(=O)[C@H](CCCCN)NC(=O)[C@H](C)NC(=O)[C@H](CO)NC(=O)[C@H](CCCCN)NC(=O)[C@H](Cc1ccccc1)NC(=O)[C@@H](NC(=O)[C@H](CCCCN)NC(=O)[C@H](CC(C)C)NC(=O)[C@H](Cc1ccccc1)NC(=O)[C@H](CO)NC(=O)[C@H](CCCCN)NC(=O)[C@H](Cc1c[nH]c2ccccc12)NC(=O)[C@H](CCCCN)NC(C)=O)[C@@H](C)O)[C@@H](C)O)[C@@H](C)O)C(=O)N[C@@H](CO)C(=O)N[C@@H](CO)C(N)=O` [KWKSFLKTFKSAKKTLLHTALKAISS], the MIC was determined as 0.675 µM (≈ 2.03 µg/mL) in experiment [1]; 1.35 µM (≈ 4.06 µg/mL) in experiment [2]; 0.337 µM (≈ 1.01 µg/mL) in experiment [3]; 0.675 µM (≈ 2.03 µg/mL) in experiment [4]; 0.337 µM (≈ 1.01 µg/mL) against Escherichia coli.
Take `CC(C)C[C@H](NC(=O)[C@@H](NC(=O)[C@H](CCC(=O)O)NC(=O)[C@@H](N)CCCN=C(N)N)C(C)C)C(=O)NCC(=O)N[C@@H](Cc1ccc(O)cc1)C(=O)N[C@@H](CCC(=O)O)C(=O)N[C@@H](CCCN=C(N)N)C(=O)N[C@@H](CC(N)=O)C(=O)N[C@@H](CO)C(=O)N[C@@H](Cc1ccc(O)cc1)C(=O)N[C@@H](CCCCN)C(N)=O` [REVLGYERNSYK]: the MIC in [5] was > 128 µM; in [6] it was > 128 µM; against Candida albicans, > 128 µM; against Escherichia coli MG1655, ≥ 128 µM.
For the compound `CC[C@H](C)[C@H](NC(=O)[C@@H]1CCCN1C(=O)[C@@H]1CCCN1C(=O)[C@H](CCCN=C(N)N)NC(=O)[C@H](Cc1ccccc1)NC(=O)[C@@H](N)CCCN=C(N)N)C(=O)N[C@@H](CCCN=C(N)N)C(=O)N[C@@H](CCCN=C(N)N)C(=O)N1CCC[C@H]1C(=O)N1CCC[C@H]1C(=O)N[C@H](C(=O)N[C@@H](CCCN=C(N)N)C(=O)N1CCC[C@H]1C(=O)N1CCC[C@H]1C(=O)N[C@@H](Cc1ccccc1)C(=O)N[C@@H](Cc1ccc(O)cc1)C(=O)N1CCC[C@H]1C(=O)N1CCC[C@H]1C(=O)N[C@@H](Cc1ccccc1)C(=O)O)[C@@H](C)CC` [RFRPPIRRPPIRPPFYPPF], the MIC in [5] was > 64 µM; in [7], > 64 µM; in [1], > 64 µM; in [3], 12 µM (≈ 28.9 µg/mL); in [8], 32 µM (≈ 77 µg/mL); in the experiment on Escherichia coli BW25113, 8 µM (≈ 19.3 µg/mL). Further, the MIC was ≥ 32 µM in experiment [9] and 32 µM (≈ 77 µg/mL) in experiment [10].
As to `CC[C@H](C)[C@H](NC(=O)[C@@H]1CCCN1C(=O)[C@@H]1CCCN1C(=O)[C@H](CCCN=C(N)N)NC(=O)[C@H](Cc1ccccc1)NC(=O)[C@@H](N)CCCN=C(N)N)C(=O)N[C@@H](CCCN=C(N)N)C(=O)N[C@@H](CCCN=C(N)N)C(=O)N1CCC[C@H]1C(=O)N1CCC[C@H]1C(=O)N[C@H](C(=O)N[C@@H](CCCN=C(N)N)C(=O)N1CCC[C@H]1C(=O)N1CCC[C@H]1C(=O)N[C@@H](Cc1ccccc1)C(=O)N[C@@H](Cc1ccc(O)cc1)C(=O)N1CCC[C@H]1C(=O)O)[C@@H](C)CC` [RFRPPIRRPPIRPPFYP], the MIC in experiment [5] is > 64 µM; in [7], > 64 µM; in [1], > 64 µM; in experiment [3] it was 16 µM (≈ 34.6 µg/mL); in [8] it was 64 µM (≈ 138 µg/mL); with Escherichia coli BW25113 it was 11.3 µM (≈ 24.5 µg/mL). In addition, the results for the MIC (in experiment [9]; with Escherichia coli; in experiment [10]) were ≥ 64 µM, 5.66 µM (≈ 12.2 µg/mL) and 32 µM (≈ 69.2 µg/mL), respectively.
On to `CC[C@H](C)[C@H](NC(=O)[C@H](CCCCN)NC(=O)CNC(=O)[C@H](CC(C)C)NC(=O)[C@H](Cc1ccccc1)NC(=O)[C@H](CCC(N)=O)NC(=O)[C@H](Cc1ccccc1)NC(=O)[C@@H](N)C(C)C)C(=O)N[C@H](C(=O)N[C@@H](Cc1cnc[nH]1)C(=O)N[C@@H](Cc1cnc[nH]1)C(=O)N[C@H](C(=O)NCC(=O)N[C@@H](CC(N)=O)C(=O)N[C@@H](Cc1ccccc1)C(=O)N[C@H](C(=O)N[C@@H](C)C(=O)NCC(=O)N[C@@H](Cc1ccccc1)C(=O)N[C@@H](CO)C(=O)N[C@@H](C)C(=O)N[C@H](C(=O)N[C@@H](Cc1ccccc1)C(N)=O)C(C)C)C(C)C)C(C)C)[C@@H](C)CC` [VFQFLGKIIHHVGNFVAGFSAVF], for which the MIC in the experiment with Escherichia coli MG1655 is ≥ 128 µM.
Take `CC[C@H](C)[C@H](NC(=O)[C@@H](N)Cc1c[nH]c2ccccc12)C(=O)N[C@@H](CCC(N)=O)C(=O)N1CCC[C@H]1C(=O)N[C@@H](C)C(=O)N[C@H](C(=O)N[C@@H](CCCCN)C(=O)N[C@H](C(=O)N[C@H](C(=O)N1CCC[C@H]1C(=O)N[C@@H](Cc1ccc(O)cc1)C(=O)N[C@H](C(=O)N[C@@H](C)C(=O)N[C@@H](Cc1ccc(O)cc1)C(=O)N[C@@H](CC(C)C)C(=O)O)C(C)C)[C@@H](C)CC)C(C)C)[C@@H](C)O` [WIQPATKVIPYVAYL]: the MIC is ≥ 156 µM in experiment [11] and ≥ 625 µM in experiment [12].
For the compound `CC[C@H](C)[C@H](NC(=O)[C@@H](N)Cc1c[nH]c2ccccc12)C(=O)N[C@@H](CCC(N)=O)C(=O)N1CCC[C@H]1C(=O)N[C@@H](CCCCN)C(=O)N[C@@H](C)C(=O)N[C@@H](CCCCN)C(=O)N[C@H](C(=O)N[C@H](C(=O)N1CCC[C@H]1C(=O)N[C@@H](Cc1ccc(O)cc1)C(=O)N[C@H](C(=O)N[C@@H](CCCN=C(N)N)C(=O)N[C@@H](Cc1ccc(O)cc1)C(=O)N[C@@H](CC(C)C)C(=O)O)C(C)C)[C@@H](C)CC)C(C)C` [WIQPKAKVIPYVRYL], the MIC in experiment [11] is 19.5 µM (≈ 36.6 µg/mL); in experiment [12], ≥ 78.1 µM.
Take `CC[C@H](C)[C@H](NC(=O)[C@@H](N)Cc1c[nH]c2ccccc12)C(=O)N[C@@H](CCC(N)=O)C(=O)N1CCC[C@H]1C(=O)N[C@@H](CCCCN)C(=O)N[C@H](C(=O)N[C@@H](CCCCN)C(=O)N[C@H](C(=O)N[C@H](C(=O)N1CCC[C@H]1C(=O)N[C@@H](Cc1ccc(O)cc1)C(=O)N[C@H](C(=O)N[C@@H](CCCN=C(N)N)C(=O)N[C@@H](Cc1ccc(O)cc1)C(=O)N[C@@H](CC(C)C)C(=O)O)C(C)C)[C@@H](C)CC)C(C)C)[C@@H](C)O` [WIQPKTKVIPYVRYL]: the MIC was ≥ 39.1 µM in experiment [11] and ≥ 78.1 µM in experiment [12].
Regarding `CC[C@H](C)[C@H](NC(=O)[C@H](CCCN=C(N)N)NC(=O)[C@@H](N)Cc1c[nH]c2ccccc12)C(=O)N[C@@H](CCCN=C(N)N)C(=O)N1CCC[C@H]1C(=O)N[C@@H](CCCN=C(N)N)C(=O)N1CCC[C@H]1C(=O)N1CCC[C@H]1C(=O)N[C@@H](CCCN=C(N)N)C(=O)N[C@@H](CC(C)C)C(=O)N1CCC[C@H]1C(=O)N[C@@H](CCCN=C(N)N)C(=O)N[C@@H](Cc1c[nH]c2ccccc12)C(=O)N[C@@H](CCCN=C(N)N)C(=O)N1CCC[C@H]1C(=O)N[C@@H](CCCN=C(N)N)C(=O)O` [WRIRPRPPRLPRWRPR], the MIC in experiment [5] was > 64 µM; in experiment [7], 8 µM (≈ 17.6 µg/mL); in [1], > 64 µM; in experiment [3] it was 1.5 µM and 2 µM; in experiment [8], 32 µM (≈ 70.3 µg/mL); in the experiment on Escherichia coli BW25113, 2 µM (≈ 4.39 µg/mL). The MIC in [9] is 16 µM and ≥ 32 µM.
